Patent US8840866B2, “Styrylpyridine derivatives and their use for binding and imaging amyloid plaques” (The Trustees of the University of Pennsylvania, priority 2006, dated 2014)

Legend:
fibrillar Aβ aggregates = fibrillar Aβ aggregates (Homo sapiens, UniProt P05067); settings: Mathis et al. 1997; read-out: inhibition constants (Ki) for binding to fibrillar Aβ aggregates; cited from earlier work
[1] = system: pooled AD and control brain tissue homogenates; assay: Specific binding of [18F]2 to pooled AD and control brain tissue homogenates; set-up: species or system human
Excerpt: FIG. 8 depicts specific binding of [^18F]2 to pooled AD and control brain tissue homogenates. Gray and white matters were dissected from the cortical regions. […] The values presented are the mean±SEM of six measurements.

[2] = Organ distribution in normal ICR mice after iv injection of radiolabeled tracer; format: in vivo; settings: 5% EtOH in saline
Procedure: The mice (n=3 for each time point) were sacrificed by cervical dislocation at designated time-points post injection. The organs of interest were removed and weighed, and the radioactivity was counted with an automatic gamma counter. The percentage dose per organ was calculated by a comparison of the tissue counts to suitably diluted aliquots of the injected material. The total activity of the blood was calculated under the assumption that it is 7% of the total body weight. The % dose/g of samples was calculated by comparing the sample counts with the count of the diluted initial dose.

Aβ plaques = assay: Film autoradiography of postmortem AD brain sections; format: binding, human
Procedure: [^18F]tracers: Brain sections from AD subjects were obtained by freezing the brain in powdered dry ice and cut into 20 micrometer-thick sections. The sections were incubated with [^18F]tracers (200,000-250,000 cpm/200 μl) for 1 hr at room temperature. The sections were then dipped in saturated Li2CO3 in 40% EtOH (two two-minute washes) and washed with 40% EtOH (one two-minute wash) followed by rinsing with water for 30 sec. After drying, the ^18F-labeled sections were exposed to Kodak MR film overnight.

[3] = target: amyloid plaques in AD brain homogenates (Homo sapiens, UniProt P05067); settings: displacement of 125I-IMPY binding
amyloid plaques in AD brain homogenates, sequence (P05067 672-711): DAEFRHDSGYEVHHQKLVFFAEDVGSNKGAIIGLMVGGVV
Procedure: Values represent potencies (Ki) of compounds for displacement of ^125I-IMPY binding to amyloid plaques in AD brain homogenates.
Competition binding assays were carried out in 12×75 mm borosilicate glass tubes. The reaction mixture contained 50 μl of pooled AD brain homogenates (20-50 μg), 50 μl of [^125I]IMPY (0.04-0.06 nM diluted in PBS) and 50 μl of inhibitors (10^−5-10^10 M diluted serially in PBS containing 0.1% bovine serum albumin) in a final volume of 1 ml. Nonspecific binding was defined in the presence of 600 nM IMPY in the same assay tubes. The mixture was incubated at 37° C. for 2 h and the bound and the free radioactivity were separated by vacuum filtration through Whatman GF/B filters using a Brandel M-24R cell harvester followed by 2×3 ml washes of PBS at room temperature. Filters containing the bound 1-125 ligand were counted in a gamma counter (Packard 5000) with 70% counting efficiency. Under the assay conditions, the specifically bound fraction was less than 15% of the total radioactivity. The results of inhibition experiments were subjected to nonlinear regression analysis using equilibrium binding data analysis from which Ki values were calculated.

[4] = 2 min, second organ list r16-r25
[5] = 30 min, first organ list r6-r15
[6] = 30 min, second organ list r16-r25
[7] = 1 hr, second organ list r16-r25
[8] = 2 hr, second organ list r16-r25

fibrillar Aβ aggregates, sequence (P05067 672-711 limits assumed): as the sequence (P05067 672-711) above

O=C(O)c1cc(/N=N/c2ccc(-c3ccc(/N=N/c4ccc(O)c(C(=O)O)c4)cc3)cc2)ccc1O [CG, chrysamine-G]
Ki (fibrillar Aβ aggregates): 370 nM

CN(C)c1ccc(/C=C/c2ccc(OCCOCCOCCF)nc2)cc1 [[^18F]2, (E)-2-(2-(2-(2-fluoroethoxy)ethoxy)ethoxy)-5-(4-dimethylaminostyryl)pyridine]
specific binding ([1]; AD brain homogenates, gray matter): High specific binding | specific binding ([1]; AD brain, white matter homogenates): Relatively low binding | specific binding ([1]; control brain homogenates, grey or white matter): significantly lower specific binding | Biodistribution: Blood ([2]; 2 min, first organ list r6-r15): 6.05 ± 0.33 % dose/g | Biodistribution: Bone ([2]; 2 min, first organ list r6-r15): 5.97 ± 0.56 % dose/g | Biodistribution: Brain ([2]; 2 min, first organ list r6-r15): 3.49 ± 0.58 % dose/g | Biodistribution: Heart ([2]; 2 min, first organ list r6-r15): 0.75 ± 0.14 % dose/g | Biodistribution: Kidney ([2]; 2 min, first organ list r6-r15): 6.38 ± 0.95 % dose/g | Biodistribution: Liver ([2]; 2 min, first organ list r6-r15): 24.90 ± 1.49 % dose/g | Biodistribution: Lung ([2]; 2 min, first organ list r6-r15): 1.07 ± 0.20 % dose/g | Biodistribution: Muscle ([2]; 2 min, first organ list r6-r15): 7.03 ± 1.30 % dose/g | Biodistribution: Skin ([2]; 2 min, first organ list r6-r15): 2.52 ± 0.24 % dose/g | Biodistribution: Spleen ([2]; 2 min, first organ list r6-r15): 0.43 ± 0.11 % dose/g | Biodistribution: Blood [2, 4]: 3.04 ± 0.29 % dose/g | Biodistribution: Bone [2, 4]: 1.49 ± 0.08 % dose/g | Biodistribution: Brain [2, 4]: 7.77 ± 1.34 % dose/g | Biodistribution: Kidney [2, 4]: 14.19 ± 2.34 % dose/g | Biodistribution: Liver [2, 4]: 17.00 ± 0.69 % dose/g | Biodistribution: Lung [2, 4]: 5.65 ± 0.89 % dose/g | Biodistribution: Muscle [2, 4]: 0.62 ± 0.10 % dose/g | Biodistribution: Skin [2, 4]: 0.59 ± 0.03 % dose/g | Biodistribution: Spleen [2, 4]: 4.65 ± 0.76 % dose/g | Biodistribution: Blood [2, 5]: 2.65 ± 0.22 % dose/g | Biodistribution: Bone [2, 5]: 2.52 ± 0.34 % dose/g | Biodistribution: Brain [2, 5]: 0.48 ± 0.07 % dose/g | Biodistribution: Heart [2, 5]: 0.17 ± 0.03 % dose/g | Biodistribution: Kidney [2, 5]: 1.68 ± 0.11 % dose/g | Biodistribution: Liver [2, 5]: 9.26 ± 0.83 % dose/g | Biodistribution: Lung [2, 5]: 0.30 ± 0.01 % dose/g | Biodistribution: Muscle [2, 5]: 8.58 ± 0.26 % dose/g | Biodistribution: Skin [2, 5]: 3.99 ± 0.34 % dose/g | Biodistribution: Spleen [2, 5]: 0.15 ± 0.05 % dose/g | Biodistribution: Blood [2, 6]: 1.33 ± 0.16 % dose/g | Biodistribution: Bone [2, 6]: 0.63 ± 0.12 % dose/g | Biodistribution: Brain [2, 6]: 1.03 ± 0.11 % dose/g | Biodistribution: Heart [2, 6]: 1.28 ± 0.16 % dose/g | Biodistribution: Kidney [2, 6]: 3.77 ± 0.36 % dose/g | Biodistribution: Liver [2, 6]: 7.21 ± 0.69 % dose/g | Biodistribution: Lung [2, 6]: 1.73 ± 0.17 % dose/g | Biodistribution: Muscle [2, 6]: 0.75 ± 0.04 % dose/g | Biodistribution: Skin [2, 6]: 0.93 ± 0.13 % dose/g | Biodistribution: Spleen [2, 6]: 1.57 ± 0.51 % dose/g | Biodistribution: Blood ([2]; 1 hr, first organ list r6-r15): 3.48 ± 0.47 % dose/g | Biodistribution: Bone ([2]; 1 hr, first organ list r6-r15): 4.39 ± 0.40 % dose/g | Biodistribution: Brain ([2]; 1 hr, first organ list r6-r15): 0.55 ± 0.10 % dose/g | Biodistribution: Heart ([2]; 1 hr, first organ list r6-r15): 0.22 ± 0.03 % dose/g | Biodistribution: Kidney ([2]; 1 hr, first organ list r6-r15): 1.96 ± 0.21 % dose/g | Biodistribution: Liver ([2]; 1 hr, first organ list r6-r15): 10.52 ± 2.18 % dose/g | Biodistribution: Lung ([2]; 1 hr, first organ list r6-r15): 0.35 ± 0.07 % dose/g | Biodistribution: Muscle ([2]; 1 hr, first organ list r6-r15): 10.62 ± 2.59 % dose/g | Biodistribution: Skin ([2]; 1 hr, first organ list r6-r15): 4.42 ± 0.65 % dose/g | Biodistribution: Spleen ([2]; 1 hr, first organ list r6-r15): 0.13 ± 0.03 % dose/g | Biodistribution: Blood [2, 7]: 1.80 ± 0.16 % dose/g | Biodistribution: Bone [2, 7]: 1.13 ± 0.01 % dose/g | Biodistribution: Brain [2, 7]: 1.28 ± 0.20 % dose/g | Biodistribution: Heart [2, 7]: 1.66 ± 0.24 % dose/g | Biodistribution: Kidney [2, 7]: 4.29 ± 0.52 % dose/g | Biodistribution: Liver [2, 7]: 8.13 ± 1.42 % dose/g | Biodistribution: Lung [2, 7]: 1.82 ± 0.31 % dose/g | Biodistribution: Muscle [2, 7]: 0.95 ± 0.18 % dose/g | Biodistribution: Skin [2, 7]: 1.06 ± 0.09 % dose/g | Biodistribution: Spleen [2, 7]: 1.56 ± 0.17 % dose/g | Biodistribution: Blood ([2]; 2 hr, first organ list r6-r15): 2.15 ± 0.25 % dose/g | Biodistribution: Bone ([2]; 2 hr, first organ list r6-r15): 6.49 ± 0.08 % dose/g | Biodistribution: Brain ([2]; 2 hr, first organ list r6-r15): 0.37 ± 0.08 % dose/g | Biodistribution: Heart ([2]; 2 hr, first organ list r6-r15): 0.18 ± 0.08 % dose/g | Biodistribution: Kidney ([2]; 2 hr, first organ list r6-r15): 0.96 ± 1.58 % dose/g | Biodistribution: Liver ([2]; 2 hr, first organ list r6-r15): 6.86 ± 0.59 % dose/g | Biodistribution: Lung ([2]; 2 hr, first organ list r6-r15): 0.20 ± 0.36 % dose/g | Biodistribution: Muscle ([2]; 2 hr, first organ list r6-r15): 5.96 ± 0.06 % dose/g | Biodistribution: Skin ([2]; 2 hr, first organ list r6-r15): 2.91 ± 0.16 % dose/g | Biodistribution: Spleen ([2]; 2 hr, first organ list r6-r15): 0.10 ± 0.17 % dose/g | Biodistribution: Blood [2, 8]: 1.08 ± 0.06 % dose/g | Biodistribution: Bone [2, 8]: 1.64 ± 0.50 % dose/g | Biodistribution: Brain [2, 8]: 0.84 ± 0.08 % dose/g | Biodistribution: Heart [2, 8]: 1.32 ± 0.33 % dose/g | Biodistribution: Kidney [2, 8]: 2.19 ± 0.36 % dose/g | Biodistribution: Liver [2, 8]: 4.96 ± 0.90 % dose/g | Biodistribution: Lung [2, 8]: 0.98 ± 0.08 % dose/g | Biodistribution: Muscle [2, 8]: 0.52 ± 0.08 % dose/g | Biodistribution: Skin [2, 8]: 0.68 ± 0.16 % dose/g | Biodistribution: Spleen [2, 8]: 1.14 ± 0.18 % dose/g

CN(C)c1ccc(/C=C/c2ccc(OCCOCCOCCF)nc2)cc1 [Compound 2, (E)-2-(2-(2-(2-fluoroethoxy)ethoxy)ethoxy)-5-(4-dimethylaminostyryl)pyridine]
autoradiography result (Aβ plaques): confirmed the specific binding related to the presence of Aβ plaques | Ki [3]: 2.5 ± 0.4 nM
